Here are results for 16 compounds from ChEMBL document CHEMBL3991601, “The target landscape of clinical kinase drugs” (Science, 2017).

pKd: −log10 of the molar value. Active and inactive are the calls of the source.

Test [1] concerns the target Cyclin-dependent kinase 3 (Homo sapiens, UniProt Q00526).
Test [2] deals with Actin-related protein 2 (Homo sapiens, UniProt P61160).
Test [3] addresses T1, ATP-dependent RNA helicase DHX30 (Homo sapiens, UniProt Q7L2E3).
T1 sequence (Q7L2E3 whole entry): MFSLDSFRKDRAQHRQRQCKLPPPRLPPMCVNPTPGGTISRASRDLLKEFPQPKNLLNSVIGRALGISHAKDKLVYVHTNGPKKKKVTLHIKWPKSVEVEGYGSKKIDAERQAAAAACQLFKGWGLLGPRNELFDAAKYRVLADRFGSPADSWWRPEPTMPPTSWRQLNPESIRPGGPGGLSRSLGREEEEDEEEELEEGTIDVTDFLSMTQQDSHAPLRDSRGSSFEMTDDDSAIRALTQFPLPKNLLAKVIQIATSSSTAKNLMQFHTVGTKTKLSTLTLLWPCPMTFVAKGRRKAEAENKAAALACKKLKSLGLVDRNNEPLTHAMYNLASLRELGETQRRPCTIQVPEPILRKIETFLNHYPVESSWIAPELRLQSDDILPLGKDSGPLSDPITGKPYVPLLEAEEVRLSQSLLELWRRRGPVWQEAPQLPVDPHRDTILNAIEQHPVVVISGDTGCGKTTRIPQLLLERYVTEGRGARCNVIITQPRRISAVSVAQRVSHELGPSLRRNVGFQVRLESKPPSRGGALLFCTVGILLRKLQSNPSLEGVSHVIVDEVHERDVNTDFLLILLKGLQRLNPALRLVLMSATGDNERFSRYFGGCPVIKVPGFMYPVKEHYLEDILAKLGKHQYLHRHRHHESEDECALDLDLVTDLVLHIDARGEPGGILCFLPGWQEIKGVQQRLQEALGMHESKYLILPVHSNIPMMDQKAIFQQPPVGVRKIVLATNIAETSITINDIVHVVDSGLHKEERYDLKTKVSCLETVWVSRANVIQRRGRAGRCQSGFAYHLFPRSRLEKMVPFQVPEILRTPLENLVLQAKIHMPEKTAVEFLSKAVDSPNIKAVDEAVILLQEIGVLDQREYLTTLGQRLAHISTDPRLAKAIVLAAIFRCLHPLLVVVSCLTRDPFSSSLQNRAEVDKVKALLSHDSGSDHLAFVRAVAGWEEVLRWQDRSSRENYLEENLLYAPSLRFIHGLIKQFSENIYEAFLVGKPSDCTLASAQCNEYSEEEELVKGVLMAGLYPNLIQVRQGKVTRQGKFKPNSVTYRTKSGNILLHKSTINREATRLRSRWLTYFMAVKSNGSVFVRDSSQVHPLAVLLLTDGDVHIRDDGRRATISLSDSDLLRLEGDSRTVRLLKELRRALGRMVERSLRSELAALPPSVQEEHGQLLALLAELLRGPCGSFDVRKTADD

Test [4] concerns the target Eukaryotic translation initiation factor 2-alpha kinase 1 (Homo sapiens, UniProt Q9BQI3).
The target of test [5] is T2, dCTP pyrophosphatase 1 (Homo sapiens, UniProt Q9H773).
T2 sequence (Q9H773 whole entry): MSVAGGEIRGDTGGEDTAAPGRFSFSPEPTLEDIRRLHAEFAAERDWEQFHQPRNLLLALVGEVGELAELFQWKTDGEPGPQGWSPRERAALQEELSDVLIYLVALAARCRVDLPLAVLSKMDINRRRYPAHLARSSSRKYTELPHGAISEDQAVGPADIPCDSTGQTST

Test [6] addresses Serine/threonine-protein kinase SIK2 (Homo sapiens, UniProt Q9H0K1).
Test [7] deals with T3, Rab-like protein 3 (Homo sapiens, UniProt Q5HYI8).
T3 sequence (Q5HYI8 whole entry): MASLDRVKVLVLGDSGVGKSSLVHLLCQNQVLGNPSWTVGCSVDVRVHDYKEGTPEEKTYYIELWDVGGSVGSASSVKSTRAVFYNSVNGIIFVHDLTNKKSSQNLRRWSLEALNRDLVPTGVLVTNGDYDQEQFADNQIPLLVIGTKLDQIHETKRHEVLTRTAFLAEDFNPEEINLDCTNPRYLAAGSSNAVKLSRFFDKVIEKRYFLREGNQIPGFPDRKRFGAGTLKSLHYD

Test [8] concerns the target T4, Peroxisomal acyl-coenzyme A oxidase 1 (Homo sapiens, UniProt Q15067).
T4 sequence (Q15067 whole entry): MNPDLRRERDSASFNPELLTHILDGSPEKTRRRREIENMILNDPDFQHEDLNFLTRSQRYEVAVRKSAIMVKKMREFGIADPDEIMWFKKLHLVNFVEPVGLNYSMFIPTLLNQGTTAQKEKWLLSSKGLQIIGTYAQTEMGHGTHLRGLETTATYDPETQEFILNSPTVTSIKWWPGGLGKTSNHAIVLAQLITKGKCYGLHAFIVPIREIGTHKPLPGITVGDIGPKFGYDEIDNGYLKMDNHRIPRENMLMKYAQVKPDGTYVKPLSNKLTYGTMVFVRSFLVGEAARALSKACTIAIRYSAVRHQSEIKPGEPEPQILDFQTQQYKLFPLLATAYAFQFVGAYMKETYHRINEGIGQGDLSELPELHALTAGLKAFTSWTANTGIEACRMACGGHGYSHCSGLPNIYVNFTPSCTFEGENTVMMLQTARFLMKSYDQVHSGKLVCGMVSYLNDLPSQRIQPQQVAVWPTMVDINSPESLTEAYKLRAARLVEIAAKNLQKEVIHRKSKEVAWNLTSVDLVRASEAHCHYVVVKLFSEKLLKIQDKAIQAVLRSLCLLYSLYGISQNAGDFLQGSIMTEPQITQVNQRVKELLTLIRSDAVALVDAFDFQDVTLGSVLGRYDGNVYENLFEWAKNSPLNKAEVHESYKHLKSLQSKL
Also: in the data inactive means no Kd found up to 30 µM.

Sequence of Serine/threonine-protein kinase SIK2 (Q9H0K1 whole entry): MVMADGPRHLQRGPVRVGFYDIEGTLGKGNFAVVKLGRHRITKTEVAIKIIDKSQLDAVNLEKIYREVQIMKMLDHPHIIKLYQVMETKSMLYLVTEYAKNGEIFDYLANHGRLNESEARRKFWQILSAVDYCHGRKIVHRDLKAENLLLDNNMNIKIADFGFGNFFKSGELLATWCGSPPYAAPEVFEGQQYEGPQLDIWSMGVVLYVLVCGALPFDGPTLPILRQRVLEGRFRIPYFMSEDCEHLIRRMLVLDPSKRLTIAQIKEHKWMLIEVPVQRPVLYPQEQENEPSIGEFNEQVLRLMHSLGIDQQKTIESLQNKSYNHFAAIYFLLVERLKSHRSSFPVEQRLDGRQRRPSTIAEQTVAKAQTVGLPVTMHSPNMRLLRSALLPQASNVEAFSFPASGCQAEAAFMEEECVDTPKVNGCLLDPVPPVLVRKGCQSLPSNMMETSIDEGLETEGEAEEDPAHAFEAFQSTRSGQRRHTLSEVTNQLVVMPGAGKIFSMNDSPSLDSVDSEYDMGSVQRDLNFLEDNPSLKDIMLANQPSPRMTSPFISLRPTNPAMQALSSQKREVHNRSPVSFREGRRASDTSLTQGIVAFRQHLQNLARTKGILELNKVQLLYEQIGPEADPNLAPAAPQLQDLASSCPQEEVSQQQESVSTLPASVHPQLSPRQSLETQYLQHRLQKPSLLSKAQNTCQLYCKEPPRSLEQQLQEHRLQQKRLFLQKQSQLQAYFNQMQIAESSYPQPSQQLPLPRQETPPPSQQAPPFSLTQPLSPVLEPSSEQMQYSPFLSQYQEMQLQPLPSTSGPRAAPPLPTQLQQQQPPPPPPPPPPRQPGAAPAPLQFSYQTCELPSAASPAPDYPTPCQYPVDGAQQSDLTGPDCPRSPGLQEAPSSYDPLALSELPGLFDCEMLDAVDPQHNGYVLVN
Sequence of Cyclin-dependent kinase 3 (Q00526 whole entry): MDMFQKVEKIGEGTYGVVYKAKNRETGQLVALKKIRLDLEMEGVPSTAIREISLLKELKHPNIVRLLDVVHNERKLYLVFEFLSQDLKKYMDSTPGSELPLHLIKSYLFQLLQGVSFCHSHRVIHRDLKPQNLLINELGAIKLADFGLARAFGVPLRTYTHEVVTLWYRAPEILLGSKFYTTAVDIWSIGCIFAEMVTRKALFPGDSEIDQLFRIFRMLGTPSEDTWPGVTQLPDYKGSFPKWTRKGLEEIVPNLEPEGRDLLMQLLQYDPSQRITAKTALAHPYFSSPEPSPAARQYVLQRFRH
Sequence of Eukaryotic translation initiation factor 2-alpha kinase 1 (Q9BQI3 whole entry): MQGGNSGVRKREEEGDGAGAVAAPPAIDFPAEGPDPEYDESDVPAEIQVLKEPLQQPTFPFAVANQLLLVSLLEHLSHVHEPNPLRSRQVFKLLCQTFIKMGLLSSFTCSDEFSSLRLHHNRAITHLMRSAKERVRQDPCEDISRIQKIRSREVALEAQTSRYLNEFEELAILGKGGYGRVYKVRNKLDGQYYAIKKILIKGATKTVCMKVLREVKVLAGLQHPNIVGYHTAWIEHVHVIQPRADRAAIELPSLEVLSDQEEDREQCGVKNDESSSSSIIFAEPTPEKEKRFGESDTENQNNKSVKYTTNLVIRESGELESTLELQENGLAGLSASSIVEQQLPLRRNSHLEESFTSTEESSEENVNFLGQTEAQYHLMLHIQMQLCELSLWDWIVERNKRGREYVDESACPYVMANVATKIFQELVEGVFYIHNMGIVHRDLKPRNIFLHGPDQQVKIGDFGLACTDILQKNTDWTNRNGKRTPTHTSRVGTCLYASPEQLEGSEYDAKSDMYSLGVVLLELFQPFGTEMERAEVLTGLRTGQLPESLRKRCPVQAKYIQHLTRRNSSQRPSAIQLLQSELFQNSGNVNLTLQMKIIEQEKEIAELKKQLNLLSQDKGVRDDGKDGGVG

With `CC(=O)c1cnc2ccc(-c3cc(Cl)c(O)c(Cl)c3)nc2c1N[C@H]1CC[C@H](CN(C)C)CC1`, the Kd (as a rule, a measure of binding affinity in units of concentration) in test [1] was > 30 µM (inactive); in test [2], > 30 µM (inactive); in test [4] it was > 30 µM (inactive); in test [5], > 30 µM (inactive); in test [6], 0.24 µM (active). The negative logarithm of the Kd (pKd) (in general, the negative decadic logarithm of the Kd, by convention in mol/L) in test [3] is 8.22.

In the case of `C=CC(=O)N1CCC[C@H](n2c(=O)n(-c3ccc(Oc4ccccc4)cc3)c3c(N)ncnc32)C1`, the Kd in test [1], in test [2], in test [3], in test [4], in test [7] and in test [5] was > 30 µM (inactive) each time. Further, the Kd in test [6] is > 30 µM (inactive).

With `Nc1ncnc2c1c(-c1cccc(OCc3ccccc3)c1)cn2[C@H]1C[C@@H](CN2CCC2)C1` [AEW-541], the Kd in test [1], in test [2], in test [3], in test [4], in test [7] and in test [5] was > 30 µM (inactive) in each case. Besides, the Kd in test [6] was > 30 µM (inactive).

Consider `CNC(=O)c1ccccc1Sc1ccc2c(/C=C/c3ccccn3)n[nH]c2c1` [AXITINIB], for which the Kd in test [2], in test [3], in test [8] and in test [5] was > 30 µM (inactive) in each case.

`Cc1cc(C(=O)NOCCO)c(Nc2ccc(I)cc2F)n(C)c1=O` [AZD-8330]: the Kd in test [1], in test [2], in test [3], in test [5] and in test [6] was > 30 µM (inactive) throughout. Besides, the negative logarithm of the Kd (pKd) in test [4] is 5.74.

Take `COc1cc2ncnc(Oc3cccc(NC(=O)Nc4cc(C(C)(C)C(F)(F)F)on4)c3)c2cc1OC` [CEP-32496]: the Kd in test [1], in test [2], in test [3], in test [4], in test [7] and in test [5] was > 30 µM (inactive) throughout. For the same compound, the Kd in test [6] was > 30 µM (inactive).

Regarding `COCC(=O)NC/C=C/c1ccc2ncnc(Nc3ccc(Oc4ccc(C)nc4)c(C)c3)c2c1` [CP-724714], the Kd in test [1], in test [2], in test [3], in test [4], in test [7] and in test [5] was > 30 µM (inactive) throughout. For the same compound, in test [6], the Kd is > 30 µM (inactive).

For `CC(C)(C)c1nc(-c2cccc(NS(=O)(=O)c3c(F)cccc3F)c2F)c(-c2ccnc(N)n2)s1` [DABRAFENIB], the Kd in test [2] was > 30 µM (inactive); in test [3] it was > 30 µM (inactive); in test [7], > 30 µM (inactive); in test [8], > 30 µM (inactive); in test [5], > 30 µM (inactive); in test [6], 0.649 µM (active).

For `C[C@@H](Oc1cc(-n2cnc3ccc(CN4CCN(C)CC4)cc32)sc1C(N)=O)c1ccccc1C(F)(F)F` [GSK-461364], the Kd in test [2], in test [3], in test [7], in test [8] and in test [5] was > 30 µM (inactive) throughout.

For the compound `COc1ccc(S(=O)(=O)N(C(C)=O)c2ccccc2/C=C/c2cc[n+]([O-])cc2)cc1` [HMN-214], the Kd in test [1], in test [2], in test [3], in test [4], in test [7] and in test [5] was > 30 µM (inactive) in each case. The Kd in test [6] is > 30 µM (inactive).

On to `NC1(c2ccc(-c3nc4ccn5c(=O)[nH]nc5c4cc3-c3ccccc3)cc2)CCC1` [MK-2206], for which the Kd in test [1], in test [2], in test [3], in test [4], in test [7] and in test [5] was > 30 µM (inactive) each time. In test [6], the Kd was > 30 µM (inactive).

Regarding `Cc1nc(Nc2n[nH]c3c2CN(C(=O)N[C@H](CN(C)C)c2ccccc2)C3(C)C)c2sccc2n1` [PF-03758309], the equilibrium dissociation constant (Kd) is 63.6 µM (active) in test [1]; > 30 µM (inactive) in test [2]; > 30 µM (inactive) in test [3]; > 30 µM (inactive) in test [4]; > 30 µM (inactive) in test [7]; > 30 µM (inactive) in test [5]. Also, the Kd in test [6] is 1.27 µM (active).

As to `CO[C@H]1C[C@@H]2CC[C@@H](C)[C@@](O)(O2)C(=O)C(=O)N2CCCC[C@H]2C(=O)O[C@H]([C@H](C)C[C@@H]2CC[C@@H](OP(C)(C)=O)[C@H](OC)C2)CC(=O)[C@H](C)/C=C(\C)[C@@H](O)[C@@H](OC)C(=O)[C@H](C)C[C@H](C)/C=C/C=C/C=C/1C` [RIDAFOROLIMUS], the Kd in test [1], in test [2], in test [3], in test [4], in test [7] and in test [5] was > 30 µM (inactive) each time. The Kd in test [6] is > 30 µM (inactive).

Regarding `O=C(NOCCO)c1cc(CN2OCCCC2=O)c(F)c(F)c1Nc1ccc(I)cc1F` [RO-4987655], the Kd in test [2], in test [3], in test [7] and in test [5] was > 30 µM (inactive) in each case.

As to `C[C@@H](NC(=O)c1ncnc(N)c1Cl)c1ncc(C(=O)Nc2cc(C(F)(F)F)c(Cl)cn2)s1` [TOVORAFENIB], the Kd in test [1], in test [2], in test [3], in test [4], in test [7] and in test [5] was > 30 µM (inactive) in each case. Further, the Kd in test [6] is > 30 µM (inactive).

With `Cc1cc(Nc2ncnc3ccc(NC4=NC(C)(C)CO4)cc23)ccc1Oc1ccn2ncnc2c1` [TUCATINIB], the Kd in test [1], in test [2], in test [3], in test [4], in test [7] and in test [5] was > 30 µM (inactive) in each case. For the same compound, the Kd in test [6] was > 30 µM (inactive).
